# Laboratory results from patent US10662100B2, “Chlorination-UV process for decomposition and detoxification of microcystin-LR” (priority 2016, dated 2020).
# Values joined by “and” are separate entries in the source; they are usually repeats but may differ in a detail not shown here. Identical values can stand only once. Like-named read-outs stand apart in the source and are kept apart here. Starred links: 1 amine or outer side, 2 acyl side, 3 side chain; linkers in the order of their positions; H or OH if unused. Positions of bridges follow the written chain, without caps; N, C: chain ends. Non-standard residues stand in square brackets, D forms with d. Residues, ends and D or L forms follow the SMILES beside them. Adda = CO[C@@H](Cc1ccccc1)[C@@H](C)/C=C(C)/C=C/[C@H](N[*:1])[C@H](C)C(=O)[*:2]; dAsp(3S-Me) = C[C@H](C(=O)[*:3])[C@@H](N[*:1])C(=O)[*:2]; d(γGlu) = O=C(O)[C@@H](CCC(=O)[*:2])N[*:1]; NMeDha = C=C(NC)C(=O)O
# Assays:
# [1] = 254 nm; cited from earlier work
# [2] = Chlorination of MC-LR, Total MC-LR by HPLC; assay type: physicochemical; details: pH 7.78
# Protocol: (§1) Free chlorine and MC-LR solutions were freshly prepared before each experiment. The initial MC-LR concentration was 2.00×10^−6 mol/L (2.00 mg/L). The pH of MC-LR solutions before addition of chlorine was 7.78. Initial MC-LR decomposition experiments were conducted in unbuffered solutions in order to mitigate against participation of buffers and other inorganic ions in the reactions; pH measurements were not conducted after initiation of the reactions due to limited reaction volumes. In experiments that were designed to examine the effects of pH on MC-LR behavior, 10 mM phosphate buffer was added into MC-LR solution. The pH of solution was adjusted to 6.5, 7.5, and 8.5 by addition of 50 mM sulfuric acid or 100 mM sodium hydroxide.
# (§2) […]. […] Pre-chlorinated samples were then collected in headspace-free, gas-tight containers for subsequent UV irradiation at a characteristic wavelength of 254 nm using a flat-plate collimated beam.
# (§3) A high-performance liquid chromatography (HPLC) system (Surveyor, Thermo Scientific, FL, U.S.) equipped with an Acclaim PepMap100 C18 column (250 mm×1.0 mm I.D., 5 μm particle size) was used to measure MC-LR concentration (Merel et al., (2009) Chemosphere 74: 832-839). The HPLC mobile phase was CH3CN/H2O/TFA (60:40:0.1). Sample injection volumes were 20 μL with a flow rate of 1.0 mL/min. Detection was performed using a photodiode array at 238 nm. […]
# [3] = UV254 photolysis and chlorine/UV process for MC-LR decomposition; assay type: physicochemical
# Protocol: as §1, §2
# Incident UV254 irradiance was 1.00×10^−4 W/cm^2, as measured by a calibrated radiometer (IL1700, International Light Technologies, Peabody, Mass., U.S.). UV254 doses applied in the experiments ranged from 0 to 720 mJ/cm^2 for exposure times ranging from 0 to 120 min. The actual UV254 doses delivered to the samples would have been slightly lower than these values because of the effects of reflection and absorbance, which were not accounted for. The collimated beam system used in these experiments has been described previously. Water samples were collected periodically for determination of MC-LR concentration and cytotoxicity, as described below. All experiments were conducted in triplicate and the values were expressed as mean±standard deviation (SD) from the replicate measurements.
# as §3, with “(60:40:0.1).” for “(60:40:0.1). Sample injection volumes were 20 μL with a flow rate of 1.0 mL/min. Detection was performed using a photodiode array at 238 nm.”
# Hep3B cells = assay type: cell-based, human
# NIH3T3 cells = assay type: cell-based, mouse
# [4] = cited from earlier work
Compound,quantum yield Φ254 for photodegradation [1],apparent second-order rate constant for chlorination of MC-LR [2],concentration of MC-LR over time [2],MC-LR decomposition ([3]; pH 6.5),photodecay constant (pseudo first-order) ([3]; pH 7.78),MC-LR decomposition ([3]; pH 8.5),change of cell viability resulting from UV254 exposure alone (Hep3B cells),decrease of cell viability (Hep3B cells),viability of Hep3B cells (Hep3B cells),relative cell viability of Hep3B (Hep3B cells; pH 6.5),relative cell viability of Hep3B (Hep3B cells; pH 8.5),decrease of cell viability (NIH3T3 cells),apparent second-order rate constant for chlorination of MC-LR ([4]; pH 6.1),apparent second-order rate constant for chlorination of MC-LR ([4]; pH 7),apparent second-order rate constant for chlorination of MC-LR ([4]; pH 8),molar absorptivity ε254 [1]
CN1CC(=O)NC1=N [creatinine],0.011±0.002 mol/E,–,–,–,–,–,–,–,–,–,–,–,–,–,–,–
C=C1C(=O)N[C@H](C)C(=O)N[C@@H](CC(C)C)C(=O)N[C@@H](C(=O)O)[C@H](C)C(=O)N[C@@H](CCCNC(=N)N)C(=O)N[C@@H](/C=C/C(C)=C/[C@H](C)[C@H](Cc2ccccc2)OC)[C@H](C)C(=O)N[C@@H](C(=O)O)CCC(=O)N1C [MC-LR] (R[Adda][d(γGlu)][NMeDha][dA]L[dAsp(3S-Me)]-OH; lactam N-7),–,44.5 M⁻¹ s⁻¹,remained essentially constant,64%,0.000146 s⁻¹ and 0.000169 s⁻¹ and 0.000179 s⁻¹ and 0.000223 s⁻¹,83%,modest increase,up to 89%,roughly 50%,60%,roughly 80%,up to 76%,127.8 M⁻¹ s⁻¹,91.5 M⁻¹ s⁻¹,33.1 M⁻¹ s⁻¹,–
N-chloro-creatinine,0.144±0.011 mol/E,–,–,–,–,–,–,–,–,–,–,–,–,–,–,3911 M⁻¹ cm⁻¹
